Earlier results as cited in patent publication US20080242648A1, “COMBINATION OF ERa+ LIGANDS AND HISTONE D[…] THE TREATMENT OF CANCER” (Syndax Pharmaceuticals, Inc., a California Corporation, priority 2006, published 2008).

Tested on: breast cancer
Details: second line setting, post-menopausal women

In the case of “7-alpha-[9-(4,4,5,5,5-penta fluoropentylsulphinyl)nonyl]estra-1,3,5-(10)-triene-3,17-beta-diol [Faslodex]”, the response rate is listed as 17-20% and the time to progression is listed as 5.4-5.5 month.
